Tested on: mice, CFA model of inflammatory pain
Assay: CFA model of inflammatory pain, von Frey, i.t. administration
Format: in vivo, mouse
Conditions: CFA day 2, i.t. 20 μM, 7 μL
Procedure: Unless otherwise specified, wild type C57BL/6NRj mice (male and female, aged eight-weeks at the beginning of experiment) were used (Janvier, France). Animals were allowed at least seven days of habituation to the animal facility before initiation of experiment. Mice were group-housed in a temperature-controlled room, maintained on a 12/12hour light/dark cycle (lights on at 6 A.M) with free access to standard rodent chow (Altromin 1342 (Brogaarden, […]
Drug administration and dosing for animal experiments.
All compounds were diluted in PBS or saline (depending on control) and administered through different routes i.t. (7 μL/mouse)), i.p. (10 μL/g) or s.c. (10 μL/g)) as indicated. Doses of mPD5 were based on previous studies with TPD5 (6) with a subcutaneous dose-range included in the CFA studies further guiding dose selection for SNI, STZ and CIBP studies. Pregabalin dose was chosen based on previous experience from Phenotype Expertise (Marseilles, France). In the CIBP model, a dose of […] morphine was chosen to avoid hyperactivity, though known to provide only partial pain relief in this model. In remaining experiments, 5 mg/kg morphine was chosen, known to provide full pain relief, except for the conditioned place preference experiment, where 10 mg/kg was used instead in accordance with literature. […]

CCCCCCCCCCCCCC(=O)N(CCOCCOCCC(=O)N[C@@H](Cc1c[nH]cn1)C(=O)N[C@@H](Cc1c[nH]c2ccccc12)C(=O)N[C@@H](CC(C)C)C(=O)N[C@@H](CCCCN)C(=O)N[C@H](C(=O)O)C(C)C)CCOCCOCCC(=O)N[C@@H](Cc1c[nH]cn1)C(=O)N[C@@H](Cc1c[nH]c2ccccc12)C(=O)N[C@@H](CC(C)C)C(=O)N[C@@H](CCCCN)C(=O)N[C@H](C(=O)O)C(C)C [mPD5, myristoyl-NPEG4-(HWLKV)2]
effect on mechanical hypersensitivity (PWT) (1 hour and 5 hours after administration): significant relief of mechanical hypersensitivity
effect on mechanical hypersensitivity (PWT) (24 hours after administration): no effect

— paper PMC11530130, “Peripherally restricted PICK1 inhibitor mPD5 ameliorates pain behaviors in murine inflammatory and neuropathic pain models” (JCI Insight, 2024)
